Data taken from US20250042884A1, “3-ARYLOXYL-3-FIVE-MEMBERED HETEROARYL PROPYLAMINE COMPOUND AND USE THEREOF” (Shanghai Leado Pharmatech Co. Ltd., priority 2018, published 2025).
Like-named read-outs stand apart in the source and are kept apart here.

Key:
TRPA1 = TRPA1 (Mus musculus (Mouse), UniProt Q8BLA8); assay: IonWorks Barracuda (IWB) automated patch clamp detection of TRPA1 inhibitory activity; type: cell-based; conditions: for IC50: HEK293 cells stably expressing TRPA1
Experimental: The inhibitory activity of some compounds in the examples of the present invention (as shown in Table 1) on transient receptor potential channel protein TRPA1 was tested in this example. The compound of formula A (WO2010075353) was used as a positive control compound: […]
Ion Works Barracuda (IWB) automated patch clamp detection was used as test method: HEK293 cells stably expressing TRPA1 were placed in DMEM medium containing 15 μg/mL Blasticidin S HCl, 200 μg/mL Hygromycin B and 10% FBS in the T175 culture flask, and cultured in 37° C., 5% CO2 incubator. When the cell density reached about 80%, the culture medium was removed, rinsed with phosphate buffered saline (PBS) without calcium and magnesium. 3 mL of Trypsin was added to digest for 2 min, 7 mL of culture medium was added to terminate the digestion. The cells were collected to 15 mL centrifuge tube and centrifuged at 800 rpm for 3 min. After the supernatant was removed, the cells were added to appropriate volume of extracellular fluid for re-suspending, and the cell density was controlled at 2-3×10^6/mL for IWB experiment. Extracellular fluid formulation (in mM): 140 NaCl, 5 KCl, 1 MgCl2, 10 HEPES, 0.5 EGTA, 10 Glucose (pH 7.4); intracellular fluid formulation (in mM): 140 CsCl, 10 HEPES, 5 EGTA, 0.1 CaCl2, 1 MgCl2 (pH 7.2). 28 mg/mL of amphotericin B was freshly prepared with DMSO on the day of experiment, and then final concentration of 0.1 mg/mL was prepared with intracellular fluid.
Population patch clamp (PPC) plate was used in IWB experiment. The entire detection process was automatically carried out by the instrument. Extracellular fluid was added into 384 wells of PPC plate, and 6 µL of the intracellular fluid was added into plenum (under the PPC plate), 6 µL of cell fluid was added for sealing test, and finally the intracellular fluid in plenum was replaced with amphotericin B-containing intracellular fluid to establish a whole-cell recording mode after perforating sealed cells. The sampling frequency for recording TPRA1 current was 10 kHz, the cells were clamped at 0 mV, the voltage stimulation command (channel protocol) was a ramp voltage from −100 mV to +100 mV for 300 ms. This voltage stimulation was applied every 10 s, mTRPA1current was induced by 300 µM AITC.
Data recording and current amplitude measurement export were carried out by IWB software (version 2.5.3, Molecular Devices Corporation, Union City, CA). No statistics was recorded for holes with sealing impedance lower than 20 MQΩ. The original current data was corrected by software for leakage reduction. TRPA1 current amplitude was measured at +100 mV. […] If IC50 value of HC030031 exceeded 3 times the average IC50 value previously obtained on each plate, it would be re-tested. The dose-effect curve of compounds and IC50 were fitted and calculated by GraphPad Prism 5.02 (GraphPad Software, San Diego, CA).
Some compounds in the examples of the present invention were detected by lonWorks Barracuda (IWB) automated patch clamp detection method for IC50 inhibitory activity.

Sprague-Dawley rats = assay: Rat hot plate pain model (acute pain); type: in vivo; conditions: 30 mg/kg intraperitoneal, hydrochloride salt
Experimental: Sprague-Dawley male, mature and unmated rats were placed at hot and cold plate (product model: PE34, US IITC) with constant 53±0.1° C. Mice with painful response such as licking claw, shaking claw or slightly jumping within 10-30 s were selected, and mice which evaded and jumped were abandoned. […] The test compound was freshly prepared on the day of administration. 0.9% NaCl physiological saline solution was prepared as solvent for later use. Appropriate amount of test compound was added into required volume of physiological saline and fully suspended, and the concentration of prepared drug was 1 mg/ml. […] After administration, the latency of heat pain was measured at 0.5 h, 1 h and 2 h after administration. In order to prevent animals from being scalded on the hot plate, the maximum incubation time was set to 30 s. Maximum possible effect (MPE) % was used to evaluate analgesic effect of each compound, i.e., MPE %=[(Post drug latency−baseline latency)/(30−baseline latency)]×100. MPE % at different time points was recorded.

ICR mice = assay: Mice acetic acid writhing pain model (visceral and inflammatory pain); type: in vivo; conditions: for number of appearance of writhing reactions (visceral pain) within 30 min: 1 h before acetic acid, saline group 49 times
Experimental: Male ICR mice, 22-25 g, were fasted but allowed to drink water freely for 2 h before administration. All ICR mice were weighed and grouped randomly, each group had >10 animals. […] The drug was administrated by gavage based on the weight of mice. 1.5% acetic acid solution (0.1 ml/10 g) was injected intraperitoneally 1 h after administration, and the number of times of visceral pain in each group was observed within 30 min. When concave abdomen, stretched trunk and hind claw, and high buttocks appeared, one number point was recorded. Finally, the number of appearance of the above phenomenon was counted within 30 minutes.

Sequence of TRPA1 (Q8BLA8 whole entry): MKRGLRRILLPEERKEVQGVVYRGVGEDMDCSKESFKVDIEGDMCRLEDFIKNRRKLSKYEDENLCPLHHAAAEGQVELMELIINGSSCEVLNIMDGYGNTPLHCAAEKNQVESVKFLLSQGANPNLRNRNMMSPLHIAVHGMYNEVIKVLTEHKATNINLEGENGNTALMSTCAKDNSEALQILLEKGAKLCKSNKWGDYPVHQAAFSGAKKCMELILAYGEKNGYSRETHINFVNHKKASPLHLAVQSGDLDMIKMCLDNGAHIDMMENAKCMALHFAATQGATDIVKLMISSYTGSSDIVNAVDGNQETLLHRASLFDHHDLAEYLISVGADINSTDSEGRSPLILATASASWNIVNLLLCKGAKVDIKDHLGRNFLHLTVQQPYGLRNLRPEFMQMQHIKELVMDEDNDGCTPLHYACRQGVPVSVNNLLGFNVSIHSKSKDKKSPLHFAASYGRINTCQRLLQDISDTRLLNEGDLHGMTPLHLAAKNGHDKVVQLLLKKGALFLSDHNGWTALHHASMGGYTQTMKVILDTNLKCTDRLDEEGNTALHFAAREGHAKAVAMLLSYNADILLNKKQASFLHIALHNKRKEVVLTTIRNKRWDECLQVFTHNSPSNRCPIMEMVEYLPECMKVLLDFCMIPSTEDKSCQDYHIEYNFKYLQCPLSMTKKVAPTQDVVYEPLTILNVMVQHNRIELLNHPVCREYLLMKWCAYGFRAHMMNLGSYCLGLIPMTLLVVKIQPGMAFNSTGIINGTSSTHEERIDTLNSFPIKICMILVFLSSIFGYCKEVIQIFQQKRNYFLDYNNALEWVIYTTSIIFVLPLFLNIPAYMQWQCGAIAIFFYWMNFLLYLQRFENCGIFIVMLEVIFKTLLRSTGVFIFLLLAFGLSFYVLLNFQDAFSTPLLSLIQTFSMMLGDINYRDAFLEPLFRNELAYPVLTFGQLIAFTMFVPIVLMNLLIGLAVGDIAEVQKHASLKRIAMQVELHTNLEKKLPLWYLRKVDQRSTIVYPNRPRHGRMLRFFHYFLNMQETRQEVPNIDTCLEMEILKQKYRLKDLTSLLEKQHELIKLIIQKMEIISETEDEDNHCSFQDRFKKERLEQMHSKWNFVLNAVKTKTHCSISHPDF

IC50 (TRPA1; FIG. 1, read-out: IC50 on TRPA1, automated patch clamp): 2.06 µM | IC50 (TRPA1; current induced by AITC, read-out: IC50 (μM), inhibitory activity on TRPA1 in the automated patch clamp detection test): 1 to 5 µM | activity ratio, IC50 of compound C2/IC50 of compound I-1 (TRPA1; TRPA1, automated patch clamp): about 6.3
SMILES: CNCC[C@@H](Oc1cccc2ccoc12)c1cccs1 [Compound I-1, (R)-3-(benzofuran-7-yloxy)-N-methyl-3-(thiophen-2-yl)propyl-1-amine]
MPE % (Sprague-Dawley rats; 0.5 h after administration): 14.51 ± 6.87% | MPE % (Sprague-Dawley rats; 1 h after administration): 38.03 ± 5.66% | MPE % (Sprague-Dawley rats; 2 h after administration): 31.92 ± 6.79% | number of appearance of writhing reactions (visceral pain) within 30 min (ICR mice; 5 mg/kg by gavage): 19 times | number of visceral pain lower than the saline control group (ICR mice; 5 mg/kg by gavage, 19 times vs 49 times): 50% | number of appearance of writhing reactions (visceral pain) within 30 min (ICR mice; 10 mg/kg by gavage): 16 times
